Source: patent US20110152243A1, “NOVEL THIENOPYRROLE COMPOUNDS” (ABBOTT LABORATORIES, priority 2009, published 2011)

Target: PKCθ (Homo sapiens, UniProt Q04759)
Assay: PKCθ enzyme data at 1 mM ATP
Type: biochemical

Chain of PKCθ (Q04759 whole entry): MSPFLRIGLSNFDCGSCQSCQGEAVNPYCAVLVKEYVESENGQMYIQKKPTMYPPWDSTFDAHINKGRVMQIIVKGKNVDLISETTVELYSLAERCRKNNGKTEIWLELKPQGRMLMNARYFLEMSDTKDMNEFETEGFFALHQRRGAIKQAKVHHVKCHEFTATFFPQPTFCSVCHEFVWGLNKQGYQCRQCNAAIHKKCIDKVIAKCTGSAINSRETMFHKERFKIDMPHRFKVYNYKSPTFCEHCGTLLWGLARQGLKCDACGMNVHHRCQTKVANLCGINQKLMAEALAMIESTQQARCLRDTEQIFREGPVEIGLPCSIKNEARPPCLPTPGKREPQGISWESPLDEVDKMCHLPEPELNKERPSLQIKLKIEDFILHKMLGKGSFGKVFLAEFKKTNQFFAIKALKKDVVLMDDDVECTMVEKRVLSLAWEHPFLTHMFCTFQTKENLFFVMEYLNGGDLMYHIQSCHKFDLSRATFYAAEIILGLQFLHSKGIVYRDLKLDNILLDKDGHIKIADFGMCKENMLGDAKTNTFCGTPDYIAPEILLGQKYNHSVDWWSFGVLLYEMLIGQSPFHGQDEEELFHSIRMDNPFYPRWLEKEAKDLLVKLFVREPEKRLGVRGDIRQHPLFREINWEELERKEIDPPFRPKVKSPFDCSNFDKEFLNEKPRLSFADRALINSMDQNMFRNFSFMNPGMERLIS

Row | SMILES | IC50
1 | CN1CCN(c2nc3c(c(C4=C(c5c[nH]c6sccc56)C(=O)NC4=O)n2)CCCC3)CC1 [F.4.16] | 100 to 500 nM
2 | O=C1NC(=O)C(c2c[nH]c3sccc23)=C1c1nc(N2CC[C@H](N3CCCC3)[C@H](F)C2)nc2ccccc12 [E.1.29] | 100 to 500 nM
3 | COCCN1CCC(Cn2nc(C3=C(c4c[nH]c5sccc45)C(=O)NC3=O)c3ccccc32)C1 (centres unmarked) [F.4.26] | 100 to 500 nM
4 | CNC1CCN(c2nc(C3=C(c4c[nH]c5sccc45)C(=O)NC3=O)c3ccccc3n2)C1 (centres unmarked) [G.1.7] | 100 to 500 nM
5 | CC(C1CCN(c2nc(C3=C(c4c[nH]c5sccc45)C(=O)NC3=O)c3ccccc3n2)CC1)N(C)C (centres unmarked) [E.1.12] | 100 to 500 nM
6 | O=C1NC(=O)C(c2c[nH]c3ccsc23)=C1c1nc(N2CCC3(CCCNC3)C2)nc2ccccc12 (centres unmarked) [G.1.6] | 100 to 500 nM
7 | CNCC1CCN(c2nc(C3=C(c4c[nH]c5sccc45)C(=O)NC3=O)c3ccccc3n2)C1 (centres unmarked) [G.1.14] | 500 to 1000 nM
8 | O=C1NC(=O)C(c2c[nH]c3sccc23)=C1c1nc(N2CC[C@@H](N3CCCC3)[C@H](F)C2)nc2ccccc12 [E.1.32] | < 100 nM
9 | Cn1cnc2c1CN(c1nc(C3=C(c4c[nH]c5sccc45)C(=O)NC3=O)c3ccccc3n1)CC2 [E.1.53] | < 100 nM

Further lines, results first:

Row | IC50 | SMILES
10 | < 100 nM | CN1CCN(c2nc(C3=C(c4c[nH]c5sccc45)C(=O)NC3=O)c3c(F)cccc3n2)CC1 [F.4.1, 3-(5-Fluoro-2-(4-methylpiperazin-1-yl)quinazolin-4-yl)-4-(6H-thieno[2,3-b]pyrrol-4-yl)-1H-pyrrole-2,5-dione]
11 | < 100 nM | CN1CCN(c2nc(C3=C(c4c[nH]c5sccc45)C(=O)NC3=O)c3ccsc3n2)CC1 [F.4.2, 3-(2-(4-Methylpiperazin-1-yl)thieno[2,3-d]pyrimidin-4-yl)-4-(6H-thieno[2,3-b]pyrrol-4-yl)-1H-pyrrole-2,5-dione]
12 | < 100 nM | CCC1(N)CCN(c2nc(C3=C(c4c[nH]c5sccc45)C(=O)NC3=O)c3ccccc3n2)CC1 [E.1.43]
13 | < 100 nM | CC(C)(CO)N1CCN(c2nc(C3=C(c4c[nH]c5sccc45)C(=O)NC3=O)c3ccccc3n2)CC1 [E.1.56]
14 | < 100 nM | CN1CCN(c2nc(C3=C(c4c[nH]c5sccc45)C(=O)NC3=O)c3ccccc3n2)CC1(C)C [E.1.24]
15 | < 100 nM | NC1(CO)CCN(c2nc(C3=C(c4c[nH]c5sccc45)C(=O)NC3=O)c3ccccc3n2)CC1 [E.1.57]
16 | < 100 nM | O=C1NC(=O)C(c2c[nH]c3ccsc23)=C1c1nc(N2CCN3CCCC3C2)nc2ccccc12 (centres unmarked) [E.2.10]
17 | < 100 nM | CN1CC(Cn2nc(C3=C(c4c[nH]c5sccc45)C(=O)NC3=O)c3ccccc32)C1 [F.4.22]
